Data taken from ChEMBL document CHEMBL2169878 (J Med Chem, 2012).
Activity calls are given as the source filed them. The calls are words filed in the database; no cut-off is given here.

Legend:
[1] = system: Heart; test: Cardiotoxicity against Sprague-Dawley rat Langendorff perfused heart assessed as intraventricular conduction time at 0.1 uM by electrophysiological analysis (reference value: 13.92 0.42 ms); type: toxicity, tissue-based
[2] = system: Plasmodium berghei; test: Antimalarial activity against Plasmodium berghei ANKA expressing GFP infected in mouse assessed as reduction in parasitemia at 30 mg/kg, po administered at 6,24,48 and 72 hrs post-infection measured 24 hrs post-final dosing by flow cytometric analysis; type: functional; design: scale not given: the % may be the effect or the level left
[3] = system: Plasmodium berghei; test: Antimalarial activity against Plasmodium berghei ANKA expressing GFP infected in mouse assessed as cure from infection at 30 mg/kg, po administered 24 hrs post-infection measured on day 30; type: functional, organism-based; design: dose 30 mg/kg

Clc1ccc(C(Nc2ccnc3cc(Cl)ccc23)c2ccc(CN3CCNCC3)cc2)cc1 (racemic)
Time [1]: 14 ms | Activity [2]: 99.8% | Activity [3]: inactive
